Source: patent USRE36784E, “Chemoprotective isothiocyanates” (The Johns Hopkins University, priority 1997, dated 2000)
“Also recorded” adds a separate entry of the source. Like-named read-outs stand apart in the source and are kept apart here.

What was measured:
[1] = test system: Hepa 1c1c7 murine hepatoma cells; conditions: Hepa 1c1c7 cells
Procedure: (§1) Assay of Inducer Potency. Inducer activity was measured in Hepa 1c1c7 murine hepatoma cells grown in 96-well microtiter plates (Prochaska and Santamaria, Anal. Biochem. 169:328-336 (1988); Prochaska et al., Proc. Natl. Acad. Sciences USA 89:2394-2398 (1992)). QR activity (based on the formation of the blue-brown reduced tetrazolium dye) was measured with an optical microtiter plate scanner in cell lysates prepared in one plate, and the cell density was determined in the second plate by staining with crystal violet. Quantitative information on specific activity of QR, the inducer potency, and the cytotoxicity of the extract or compound tested is obtained by computer analysis of the absorbances. One unit of inducer activity is defined as the amount that when added to a single microtiter well doubled the QR specific activity. The CD value is the concentration of a compound required to double the quinone reductase specific activity in Hepa 1c1c7 murine hepatoma cells.

[2] = test system: quinone reductase (QR) in Hepa 1c1c7 murine hepatoma cells; test: Induction of QR (inducer potency, CD value) in Hepa 1c1c7 murine hepatoma cells; type: cell-based; conditions: for activity as inducers compared with sulforaphane and sulforaphene: in cell culture
Procedure: as §1
Each of the analogs of sulforaphane was tested for the ability to induce QR in murine hepatoma cells by the assay described in Example 1.
Analogs were synthesized and tested in the hepatoma cell assay described in Example 1.

[3] = test system: QR in BP^r cl mutant (defective in transport of the liganded Ah receptor to the nucleus); conditions: data not shown
[4] = test system: QR in cl mutant (which synthesizes inactive cytochrome P-450IA1); conditions: data not shown
QR (quinone reductase) = test: Induction of QR in mouse tissues after gavage; type: in vivo, mouse (female CD-1)
Procedure: (§2) The compounds were administered to 6week-old female CD1 mice (4 or 5 mice
(§3) per group) by gavage in indicated single daily doses in 0.1 ml of Emulpho
(§4) EL 620P (GAF. Linden, NJ) for 5 days. Cytosols were prepared from the
(§5) tissues 24 hr after the last treatment and assayed for enzyme activities
(§6) (glutathione Stransferase was measured with 1chloro-2,4-dinitrobenzene).
(§7) The specific activities (nmol · min^-1 · mg^-1
(§8) ± SEM) of organs of vehicletreated #control mice were as follows.
(§9) 54 ± 5.8: GST. 439 ± 34. Data are presented as mean ± SEM.

[5] = test system: phase I and phase II enzymes in mutants of Hepa 1c1c7 cells; conditions: phase II selective = monofunctional
[6] = test system: glutathione S-transferase (GST); test: Induction of glutathione S-transferase (GST) in mouse tissues after gavage; type: in vivo, mouse (female CD-1)
Procedure: as §2, §3, §4, §5, §6, §7, §8, §9

[7] = test system: phase I and phase II enzymes in mutants of Hepa 1c1c7 cells; conditions: Prochaska et al. 1988; cited from earlier work
[8] = test system: quinone reductase (QR) in Hepa 1c1c7 murine hepatoma cells; parameters: unit not given here; conditions: footnote 3, reported value; cited from earlier work
[9] = Mus musculus, Hepa-1c1c7, text, isolated (R)- and synthetic (R,S)-sulforaphane, read-out: CD values
[10] = 15 μmol per mouse per day, gavage, 5 days, glandular stomach
[11] = 15 μmol per mouse per day, gavage, 5 days, liver
[12] = 15 μmol per mouse per day, gavage, 5 days, lung
[13] = 15 μmol per mouse per day, gavage, 5 days, proximal small intestine
[14] = Mus musculus, Hepa-1c1c7, read-out: CD, Table 3, QR induction, hepatoma cell assay of Example 1
[15] = Mus musculus, Hepa-1c1c7, read-out: CD value, Table 1, QR induction, Hepa 1c1c7 cells
[16] = Table 3, QR induction, hepatoma cell assay of Example 1, read-out: CD

C[S+]([O-])CCCCN=C=S (racemic) [(R,S)-sulforaphane]
cytotoxicity in words [1]: relatively noncytotoxic | EC (2-fold QR specific activity) [2, 9]: 0.2 to 0.4 µM

C[S+]([O-])CCCCN=C=S (racemic) [Sulforaphane]
induction of QR in mutant cells [3]: normal | induction of QR in mutant cells [4]: normal | rise in QR activity in lung (QR (quinone reductase); 15 μmol daily for 5 days, lung): to a lesser degree | Ratio of specific activities (treated/control), QR, Forestomach (QR (quinone reductase); 15 μmol per mouse per day, gavage, 5 days, forestomach, *P < 0.05): 1.70 ± 0.18 | Ratio of specific activities (treated/control), QR, Glandular stomach (QR (quinone reductase); [10]): 2.35 ± 0.06 | Ratio of specific activities (treated/control), QR, Liver (QR (quinone reductase); [11]): 2.45 ± 0.07 | Ratio of specific activities (treated/control), QR, Lung (QR (quinone reductase); [12]): 1.37 ± 0.14 | Ratio of specific activities (treated/control), QR, Proximal small intestine (QR (quinone reductase); [13]): 2.34 ± 0.19 | EC (2-fold QR specific activity) ([2]; Mus musculus, Hepa-1c1c7, Table 1, QR induction, Hepa 1c1c7 cells, read-out: CD value): 0.4 to 0.8 µM | relative potency as inducers of QR ([2]; comparison in words, Table 1): most potent monofunctional inducer that has been identified; also recorded: equipotent | inducer type [5]: monofunctional inducer | rise in glutathione transferase activity in lung ([6]; 15 μmol daily for 5 days, lung): to a lesser degree | Ratio of specific activities (treated/control), GST, Forestomach ([6]; 15 μmol per mouse per day, gavage, 5 days, forestomach): 1.98 ± 0.08 | Ratio of specific activities (treated/control), GST, Glandular stomach [6, 10]: 2.97 | Ratio of specific activities (treated/control), GST, Liver [6, 11]: 1.86 ± 0.08 | Ratio of specific activities (treated/control), GST, Lung [6, 12]: 1.17 | Ratio of specific activities (treated/control), GST, Proximal small intestine [6, 13]: 2.13

CS(=O)(=O)[C@@H]1CCC[C@@H](CN=C=S)C1 (relative stereo) [GHP 1079, cis- or trans-3-(methylsulfonyl)cyclohexylmethylisothiocyanate]
EC (2-fold QR specific activity) [2, 14]: 0.48 µM

CS(=O)(=O)[C@@H]1CCC[C@H](CN=C=S)C1 (relative stereo) [GHP 1080, cis- or trans-3-(methylsulfonyl)cyclohexylmethylisothiocyanate]
EC (2-fold QR specific activity) [2, 14]: 0.41 µM

C[S@@+]([O-])CCCCN=C=S [(R)-sulforaphane]
cytotoxicity in words [1]: relatively noncytotoxic | inducer activity ([2]; 8.9 mg isolated after HPLC/TLC/HPLC): 558,000 inducer units | EC (2-fold QR specific activity) [2, 9]: 0.2 to 0.4 µM

C[S+]([O-])CCCCCN=C=S (stereo not shown) [Alyssin]
EC (2-fold QR specific activity) [2, 15]: 0.95 µM | activity as inducers compared with sulforaphane and sulforaphene [2]: less active

S=C=NCc1ccccc1 [Benzylisothiocyanate]
inducer type [7]: monofunctional inducer

CSCCCCCN=C=S [Berteroin]
EC (2-fold QR specific activity) [2, 15]: 1.7 µM | activity as inducers compared with sulforaphane and sulforaphene [2]: less active

CS(=O)(=O)CCCN=C=S [Cheirolin]
EC (2-fold QR specific activity) [2, 15]: 1.3 µM | activity as inducers compared with sulforaphane and sulforaphene [2]: less active

CSCCCCCN=C=S [GHP 1001]
EC (2-fold QR specific activity) [2, 14]: 1.71 µM

C[S+]([O-])CCCCCN=C=S (stereo not shown) [GHP 1002]
EC (2-fold QR specific activity) [2, 14]: 0.94 µM

CS(=O)(=O)CCCCCN=C=S [GHP 1003, 1-isothiocyanato-5-methylsulfonylpentane]
EC (2-fold QR specific activity) [2, 15]: 0.98 µM | EC (2-fold QR specific activity) [2, 14]: 0.98 µM

S=C=NCCCCCSSCCCCCN=C=S [GHP 1004]
EC (2-fold QR specific activity) [2, 14]: 0.83 µM

C[S+]([O-])CCCCN=C=S (stereo not shown) [GHP 1005]
EC (2-fold QR specific activity) ([2]; Mus musculus, Hepa-1c1c7, Table 3, QR induction, hepatoma cell assay of Example 1, read-out: CD): 0.2 µM

CS(=O)(=O)CCCCN=C=S [GHP 1007]
EC (2-fold QR specific activity) [2, 14]: 0.82 µM

CSCCCN=C=S [GHP 1008]
EC (2-fold QR specific activity) [2, 14]: 3.52 µM

C[S+]([O-])CCCN=C=S (stereo not shown) [GHP 1009]
EC (2-fold QR specific activity) [2, 14]: 2.36 µM

CS(=O)(=O)CCCN=C=S [GHP 1010]
EC (2-fold QR specific activity) [2, 14]: 1.32 µM

CSCc1ccccc1CN=C=S [GHP 1021]
EC (2-fold QR specific activity) [2, 14]: 4.3 µM

CSc1ccccc1CCN=C=S [GHP 1022]
EC (2-fold QR specific activity) [2, 14]: 7.4 µM

CSCCc1ccccc1N=C=S [GHP 1023]
EC (2-fold QR specific activity) [2, 14]: 100 µM

COc1ccccc1N=C=S [GHP 1031]
EC (2-fold QR specific activity) [2, 14]: 100 µM

S=C=Nc1ccccc1Cl [GHP 1032]
EC (2-fold QR specific activity) [2, 14]: 100 µM

NC(=O)c1ccc(N=C=S)cc1 [GHP 1033]
EC (2-fold QR specific activity) [2, 14]: 100 µM

COc1ccccc1CN=C=S [GHP 1041]
EC (2-fold QR specific activity) [2, 14]: 2.41 µM

COc1cccc(CN=C=S)c1 [GHP 1042]
EC (2-fold QR specific activity) [2, 14]: 8.65 µM

COc1ccc(CN=C=S)cc1 [GHP 1043]
EC (2-fold QR specific activity) [2, 14]: 25 µM

COc1cccc(OC)c1CN=C=S [GHP 1044]
EC (2-fold QR specific activity) [2, 14]: 5.8 µM

CN(C)c1ccccc1CN=C=S [GHP 1045]
EC (2-fold QR specific activity) [2, 14]: 12.5 µM

CSc1ccccc1CN=C=S [GHP 1046]
EC (2-fold QR specific activity) [2, 14]: 6.8 µM

Fc1ccccc1CN=C=S [GHP 1047]
EC (2-fold QR specific activity) [2, 14]: 13.1 µM

S=C=NCc1ccccc1Cl [GHP 1048]
EC (2-fold QR specific activity) [2, 14]: 14.1 µM

S=C=NCc1ccccc1Br [GHP 1049]
EC (2-fold QR specific activity) [2, 14]: 12.5 µM

Cc1ccccc1CN=C=S [GHP 1050]
EC (2-fold QR specific activity) [2, 14]: 3.7 µM

CCOc1ccccc1CN=C=S [GHP 1051]
EC (2-fold QR specific activity) [2, 14]: 2.5 µM

S=C=NC1CCc2ccccc21 (stereo not shown) [GHP 1052]
EC (2-fold QR specific activity) [2, 14]: 38.9 µM

CCc1ccccc1CN=C=S [GHP 1053]
EC (2-fold QR specific activity) [2, 14]: 12.5 µM

CCOC(=O)CN=C=S [GHP 1061]
EC (2-fold QR specific activity) [2, 14]: 8.2 µM

CS(=O)(=O)c1ccc(CN=C=S)cc1 [GHP 1062]
EC (2-fold QR specific activity) [2, 14]: 1.2 µM

CS(=O)(=O)C1CC2CC1CC2N=C=S (stereo not shown) [GHP 1063]
EC (2-fold QR specific activity) [2, 14]: 1.02 µM

CS(=O)(=O)C1CC2CC1CC2N=C=S (stereo not shown) [GHP 1064]
EC (2-fold QR specific activity) [2, 16]: 0.66 µM

CC(=O)C1CC2CC1CC2N=C=S (stereo not shown) [GHP 1065]
EC (2-fold QR specific activity) [2, 14]: 0.77 µM

CC(=O)C1CC2CC(N=C=S)C1C2 (stereo not drawn) [GHP 1066, exo-2-acetyl-6-isothiocyanatonorbornane]
EC (2-fold QR specific activity) [2, 14]: 0.26 µM

CC(=O)C1CC2CC1CC2N=C=S (stereo not drawn) [GHP 1067, exo-2-acetyl-5-isothiocyanatonorbornane]
EC (2-fold QR specific activity) [2, 16]: 0.43 µM

CS(=O)(=O)C1CC2CC(N=C=S)C1C2 (stereo not drawn) [GHP 1068, exo-2-isothiocyanato-6-methylsulfonylnorbornane]
EC (2-fold QR specific activity) [2, 14]: 0.15 µM

COC(=O)C1CC2CC1CC2N=C=S (stereo not shown) [GHP 1069]
EC (2-fold QR specific activity) [2, 14]: 0.68 µM

COC(=O)C1CC2CC(N=C=S)C1C2 (stereo not shown) [GHP 1070]
EC (2-fold QR specific activity) [2, 14]: 1.6 µM

N#CC1CC2CC1CC2N=C=S (stereo not shown) [GHP 1071]
EC (2-fold QR specific activity) [2, 14]: 0.59 µM

O=[N+]([O-])C1CC2CC1CC2N=C=S (stereo not shown) [GHP 1072]
EC (2-fold QR specific activity) [2, 14]: 1.05 µM

CS(=O)(=O)[C@H]1CC[C@@H](N=C=S)CC1 [GHP 1073, cis-1-isothiocyanate-4-methylsulfonylcyclohexane]
EC (2-fold QR specific activity) [2, 14]: 0.44 µM

CCOC(=O)C(CCS(C)(=O)=O)N=C=S (stereo not shown) [GHP 1074]
EC (2-fold QR specific activity) [2, 14]: 2.64 µM

CC(O)C1CC2CC1CC2N=C=S (stereo not drawn) [GHP 1075, exo-2-(1'-hydroxyethyl)-5-isothiocyanatonorbornane]
EC (2-fold QR specific activity) [2, 14]: 0.45 µM

OC1CC2CC1CC2N=C=S (stereo not shown) [GHP 1077]
EC (2-fold QR specific activity) [2, 14]: 1.85 µM

CP(C)(=O)CCCCN=C=S [GHP 1078, 1-isothiocyanato-4-dimethylphosphonyl-butane]
EC (2-fold QR specific activity) [2, 14]: 0.43 µM

CCCCC(=O)CCCCN=C=S [GHP 1081]
EC (2-fold QR specific activity) [2, 14]: 2 µM

N#CCCCCN=C=S [GHP 1101]
EC (2-fold QR specific activity) [2, 14]: 1.97 µM

COC(=O)CCCCN=C=S [GHP 1102]
EC (2-fold QR specific activity) [2, 14]: 2.81 µM

O=C(O)CCCCN=C=S [GHP 1103]
EC (2-fold QR specific activity) [2, 14]: 2.19 µM

CC(=O)CCCCN=C=S [GHP 1105, 6-isothiocyanato-2-hexanone]
EC (2-fold QR specific activity) [2, 14]: 0.23 µM

CC(O)CCCCN=C=S (stereo not shown) [GHP 1106, 6-isothiocyanato-2-hexanol]
EC (2-fold QR specific activity) [2, 14]: 0.35 µM

C[S+]([O-])CCCN=C=S (stereo not shown) [Iberin]
EC (2-fold QR specific activity) [2, 15]: 2.4 µM | activity as inducers compared with sulforaphane and sulforaphene [2]: less active

CSCCCN=C=S [Iberverin]
EC (2-fold QR specific activity) [2, 15]: 3.5 µM | activity as inducers compared with sulforaphane and sulforaphene [2]: less active

S=C=NC1CCCCC1 [cyclohexylisothiocyanate]
CD value (reported) [8]: 14
